The source of these data is patent publication US20050227956A1, “Control of mold growth on wood” (priority 2004, published 2005).

Where two headings read alike, the source gives them in different places. Marks after values point to notes of the source that are not given here. Where only a bound is given, the exact number is not on record here.

Assay in all cases: Six-well plate screening test
One test deals with Aspergillus niger. It is filed as cell-based.
Another test deals with Aureobasidium pullulans. It is filed as cell-based. The following applies: for MIC: single moldicide or ACQ-C alone, incubation period 14 days.
Test [1] relates to Cladosporium cladosporioides. The test is classed as cell-based. The note with it: for MIC: single moldicide or ACQ-C alone, incubation period 14 days.
In the next test the test system is Penicillium funiculosum. It is filed as cell-based. The following applies: for MIC: single moldicide or ACQ-C alone, incubation period 14 days.
The next test concerns Alternaria alternata. The test is classed as cell-based. The note with it: for MIC: single moldicide or ACQ-C alone, incubation period 14 days.
The next test relates to Trichoderma virens. It is filed as cell-based. The note with it: for MIC: single moldicide or ACQ-C alone, incubation period 14 days.
For a further test, the system named is Stachybotrus charatrum. The test is classed as cell-based.
The test system of another test is Mold from ACQ wood. The test is classed as cell-based, cephalosporium. The note with it: 10 days of incubation at room temperature.
The mark [2] stands for this setting: 10 days of incubation at room temperature.

On to `CC(C)(C)C(O)C(Oc1ccc(Cl)cc1)n1cncn1` (stereo not drawn) [BAYTAN, (1RS,2RS; 1RS,2SR)-1-(4-chlorophenoxy)-3,3-dimethyl-1-(1H-1,2,4-triazol-1-yl)butan-2-ol], for which the “Minimum Inhibitory Concentrations (MIC)” value in the test on Aspergillus niger (setting [2]) was above 100 mg/kg; in the test with Aureobasidium pullulans (setting [2]), 50 mg/kg; in test [1] (setting [2]) it was 50 mg/kg; in the test with Penicillium funiculosum (setting [2]), above 100 mg/kg; in the test on Alternaria alternata (setting [2]), above 100 mg/kg; with Trichoderma virens (setting [2]), above 100 mg/kg. Besides, the “Minimum Inhibitory Concentrations (MIC)” value in the test on Stachybotrus charatrum (setting [2]) was above 100 mg/kg.
On to `COC(=O)Nc1nc2ccccc2[nH]1` [Carbendazim, methyl benzimidazol-2-ylcarbamate], for which the “Minimum Inhibitory Concentrations (MIC)” value was 5 mg/kg in the test with Aspergillus niger (setting [2]); 0.1 mg/kg with Aureobasidium pullulans (setting [2]); 1^a mg/kg in test [1] (setting [2]); 1 mg/kg with Penicillium funiculosum (setting [2]); above 100 mg/kg with Alternaria alternata (setting [2]); 1 mg/kg in the test on Trichoderma virens (setting [2]).
Turning to `O=[N+]([O-])c1cc(C(F)(F)F)c(Cl)c([N+](=O)[O-])c1Nc1ncc(C(F)(F)F)cc1Cl` [Fluazinam, 3-chloro-N-(3-chloro-5-trifluoromethyl-2-pyridyl)-alpha,alpha,alpha-trifluoro-2,6-dinitro-p-toluidine], the “Minimum Inhibitory Concentrations (MIC)” value in the test with Aspergillus niger (setting [2]) is reported as 1 mg/kg; in the test on Aureobasidium pullulans (setting [2]), 1 mg/kg; in test [1] (setting [2]) it was 1 mg/kg; in the test on Penicillium funiculosum (setting [2]) it was 10 mg/kg; in the test on Alternaria alternata (setting [2]), 10 mg/kg; in the test with Trichoderma virens (setting [2]), above 100 mg/kg.
In the case of `S=C([S-])NCCNC(=S)[S-].[Na+].[Na+]` [Nabam, disodium ethylenebis(dithiocarbamate)], the “Minimum Inhibitory Concentrations (MIC)” value in the test with Aspergillus niger (setting [2]) is on record as 100 mg/kg; in the test on Aureobasidium pullulans (setting [2]) it was 100 mg/kg; in test [1] (setting [2]), 100 mg/kg; in the test with Penicillium funiculosum (setting [2]), above 100 mg/kg; in the test on Alternaria alternata (setting [2]) it was above 100 mg/kg; in the test with Trichoderma virens (setting [2]) it was 100 mg/kg. Besides, the “Minimum Inhibitory Concentrations (MIC)” value with Stachybotrus charatrum (setting [2]) was 100 mg/kg.
On to `CC(C)NC(=O)N1CC(=O)N(c2cc(Cl)cc(Cl)c2)C1=O` [Iprodione, 3-(3,5-dichlorophenyl)-N-isopropyl-2,4-dioxoimidazolidine-1-carboxamide], for which the “Minimum Inhibitory Concentrations (MIC)” value in the test on Aspergillus niger (setting [2]) is recorded as 10 mg/kg; in the test on Aureobasidium pullulans (setting [2]), above 100 mg/kg; in test [1] (setting [2]), above 101 mg/kg; in the test on Penicillium funiculosum (setting [2]), above 102 mg/kg; with Alternaria alternata (setting [2]), 100 mg/kg; with Trichoderma virens (setting [2]), above 100 mg/kg.
With “bis(8-hydroxyquinolinium) sulfate [8-hydroxyquinoline]”, the “Minimum Inhibitory Concentrations (MIC)” value in the test on Aspergillus niger worked out at 100 mg/kg; with Aureobasidium pullulans it was 50 mg/kg; in test [1] it was 25 mg/kg; in the test with Penicillium funiculosum it was 25 mg/kg; in the test on Alternaria alternata, 25 mg/kg; in the test with Trichoderma virens, 25 mg/kg. Also, in the test with Stachybotrus charatrum, the “Minimum Inhibitory Concentrations (MIC)” value is given as 10 mg/kg.
Turning to `CC1(c2ccc(Oc3ccccc3)cc2)OC(=O)N(Nc2ccccc2)C1=O` (racemic) [FAMOXATE, (RS)-3-anilino-5-methyl-5-(4-phenoxyphenyl)-1,3-oxazolidine-2,4-dione], the “Minimum Inhibitory Concentrations (MIC)” value (in the test with Aspergillus niger (setting [2]); with Aureobasidium pullulans (setting [2]); in test [1] (setting [2]); in the test on Penicillium funiculosum (setting [2]); in the test with Alternaria alternata (setting [2]); with Trichoderma virens (setting [2])) was above 100 mg/kg each time. In addition, the “Minimum Inhibitory Concentrations (MIC)” value in the test with Stachybotrus charatrum (setting [2]) is listed as above 100 mg/kg.
As to `CC(C)(C)C(=O)C(Oc1ccc(Cl)cc1)n1cncn1` (racemic) [Tridimefon, (RS)-1-(4-chlorophenoxy)-3,3-dimethyl-1-(1H-1,2,4-triazol-1-yl)butan-2-one], the “Minimum Inhibitory Concentrations (MIC)” value (in the test with Aspergillus niger (setting [2]); with Aureobasidium pullulans (setting [2]); in test [1] (setting [2]); in the test on Penicillium funiculosum (setting [2]); in the test with Alternaria alternata (setting [2]); with Trichoderma virens (setting [2])) was above 100 mg/kg in each case. Further, the “Minimum Inhibitory Concentrations (MIC)” value in the test with Stachybotrus charatrum (setting [2]) was above 100 mg/kg.
For the compound `CC(Cc1ccc(C(C)(C)C)cc1)CN1C[C@@H](C)O[C@@H](C)C1` (mixture of isomers) [Fenpropimorph, (RS)-cis-4-[3-(4-tert-butylphenyl)-2-methylpropyl]-2,6-dimethylmorpholine], the “Minimum Inhibitory Concentrations (MIC)” value is on record as above 100 mg/kg with Aspergillus niger (setting [2]); 10 mg/kg with Aureobasidium pullulans (setting [2]); 50 mg/kg in test [1] (setting [2]); above 100 mg/kg with Penicillium funiculosum (setting [2]); 50 mg/kg in the test on Alternaria alternata (setting [2]); 10 mg/kg in the test on Trichoderma virens (setting [2]). For the same compound, the “Minimum Inhibitory Concentrations (MIC)” value in the test on Stachybotrus charatrum (setting [2]) was found to be 10 mg/kg.
As to `CCCCNC(=O)n1c(NC(=O)OC)nc2ccccc21` [Benomyl, methyl 1-(butylcarbamoyl)benzimidazol-2-ylcarbamate], the “Minimum Inhibitory Concentrations (MIC)” value in the test on Aspergillus niger (setting [2]) is reported as 10 mg/kg; in the test on Aureobasidium pullulans (setting [2]) it was 100 mg/kg; in test [1] (setting [2]), 1^a mg/kg; in the test on Penicillium funiculosum (setting [2]), 1 mg/kg; in the test on Alternaria alternata (setting [2]) it was above 100 mg/kg; with Trichoderma virens (setting [2]), 1 mg/kg.
With `CCNC(=O)NC(=O)C(C#N)=NOC` [Cymoxinil, 1-(2-cyano-2-methoxyiminoacetyl)-3-ethylurea], the “Minimum Inhibitory Concentrations (MIC)” value with Aspergillus niger (setting [2]) was 10 mg/kg; with Aureobasidium pullulans (setting [2]) it was above 100 mg/kg; in test [1] (setting [2]) it was above 100 mg/kg; with Penicillium funiculosum (setting [2]) it was above 100 mg/kg; in the test with Alternaria alternata (setting [2]), above 100 mg/kg; in the test with Trichoderma virens (setting [2]), above 100 mg/kg. In the test on Stachybotrus charatrum (setting [2]), the “Minimum Inhibitory Concentrations (MIC)” value was above 100 mg/kg. Moreover, the MIC is reported as above 100 mg/kg against Aspergillus niger (single moldicide or ACQ-C alone, incubation period 14 days); above 100 mg/kg against Aureobasidium pullulans; above 100 mg/kg in test [1]; above 100 mg/kg in the test on Penicillium funiculosum; above 100 mg/kg with Alternaria alternata; above 100 mg/kg in the test with Trichoderma virens.
As for `CC1=C(C(=O)Nc2ccccc2)SCCO1` [Carboxin, 5,6-dihydro-2-methyl-1,4-oxathiine-3-carboxanilide], the “Minimum Inhibitory Concentrations (MIC)” value in the test with Aspergillus niger (setting [2]) was above 100 mg/kg; with Aureobasidium pullulans (setting [2]) it was 100 mg/kg; in test [1] (setting [2]), 100 mg/kg; with Penicillium funiculosum (setting [2]) it was above 100 mg/kg; in the test on Alternaria alternata (setting [2]) it was above 100 mg/kg; with Stachybotrus charatrum (setting [2]) it was 100 mg/kg. The “Minimum Inhibitory Concentrations (MIC)” value in the test on Mold from ACQ wood was above 100 mg/kg.
In the case of `CO/C=C(/C(=O)OC)c1ccccc1Oc1cc(Oc2ccccc2C#N)ncn1` [Azoxystrobin, methyl (E)-2-{2-[6-(2-cyanophenoxy)pyrimidin-4-yloxy]phenyl}-3-methoxyacrylate], the “Minimum Inhibitory Concentrations (MIC)” value (with Aspergillus niger (setting [2]); with Aureobasidium pullulans (setting [2]); in test [1] (setting [2]); in the test on Penicillium funiculosum (setting [2]); in the test on Alternaria alternata (setting [2]); in the test with Trichoderma virens (setting [2])) was above 100 mg/kg throughout. Further, the “Minimum Inhibitory Concentrations (MIC)” value in the test on Stachybotrus charatrum (setting [2]) came to 25 mg/kg.
As for `N#Cc1c[nH]cc1-c1cccc(Cl)c1Cl` [Fenpiclonil, 4-(2,3-dichlorophenyl)-1H-pyrrole-3-carbonitrile], the “Minimum Inhibitory Concentrations (MIC)” value is 1 mg/kg in the test on Aspergillus niger (setting [2]); 50 mg/kg with Aureobasidium pullulans (setting [2]); 10 mg/kg in test [1] (setting [2]); above 100 mg/kg in the test on Penicillium funiculosum (setting [2]); 50 mg/kg with Alternaria alternata (setting [2]); above 100 mg/kg in the test with Trichoderma virens (setting [2]). Also, in the test with Stachybotrus charatrum (setting [2]), the “Minimum Inhibitory Concentrations (MIC)” value turned out to be 10 mg/kg.
Take `N#CSCSc1nc2ccccc2s1` [TCMBT, 2-(thiocyanomethylthio)benzothiazole]: the “Minimum Inhibitory Concentrations (MIC)” value worked out at 300 mg/kg with Aureobasidium pullulans (setting [2]); 30 mg/kg in test [1] (setting [2]); 30 mg/kg with Penicillium funiculosum (setting [2]); 300 mg/kg with Alternaria alternata (setting [2]); 3 mg/kg in the test with Trichoderma virens (setting [2]); 3 mg/kg in the test on Stachybotrus charatrum (setting [2]). Besides, the MIC in the test with Aureobasidium pullulans was found to be 300 mg/kg; in test [1] it was 30 mg/kg; in the test on Penicillium funiculosum, 30 mg/kg; against Alternaria alternata it was 300 mg/kg; against Trichoderma virens, 3 mg/kg.
